Assay results reported in patent publication US8354416B2 (Glaxo Group Limited, priority 2005, dated 2013).
Structures can show the parent of a compound that is named as a salt.

These compounds were tested on influx of neutrophils to the lung in LPS-challenged rats (assay: Rat LPS neutrophilia model). Details: intratracheal, LPS aerosol 100 ug/ml, in at least one of the range of conditions tested, significance p<0.05.
Assay type: in vivo
Summary of the method: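 Compound given intratracheally (200 ul suspension, or dry powder blend) to isoflurane-anesthetized rats 15 min–24 hours before 15 min exposure to LPS aerosol (100 ug/ml). Four hours later, bronchoalveolar lavage cells were counted differentially. Data are % inhibition of neutrophils versus no-compound controls at a given concentration and pretreat time.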

| Compound | inhibition of neutrophilia (neutrophil levels in airway lavage relative to no compound controls) |
| --- | --- |
| CCN(CC)CCCNc1nc(-c2cc(C(=O)NC3CCC3)ccc2C)c2ccc(=O)n(-c3c(F)cccc3F)c2n1 [Example 137, N-cyclobutyl-3-[2-{[3-(diethylamino)propyl]amino}-8-(2,6-difluorophenyl)-7-oxo-7,8-dihydropyrido[2,3-d]pyrimidin-4-yl]-4-methylbenzamide trifluoroacetate] | statistically significant inhibition of neutrophilia |
| CCN(CC)CCCNc1nc(-c2cc(C(=O)NCC3CC3)ccc2C)c2ccc(=O)n(-c3c(F)cccc3F)c2n1 [Example 138, N-(cyclopropylmethyl)-3-[2-{[3-(diethylamino)propyl]amino}-8-(2,6-difluorophenyl)-7-oxo-7,8-dihydropyrido[2,3-d]pyrimidin-4-yl]-4-methylbenzamide trifluoroacetate] | statistically nonsignificant inhibition of neutrophilia |
| CCN(CC)CCCNc1nc(-c2cc(C(=O)Nc3ccccc3)ccc2C)c2ccc(=O)n(-c3c(F)cccc3F)c2n1 [Example 147, 3-[2-{[3-(diethylamino)propyl]amino}-8-(2,6-difluorophenyl)-7-oxo-7,8-dihydropyrido[2,3-d]pyrimidin-4-yl]-4-methyl-N-phenylbenzamide] | statistically nonsignificant inhibition of neutrophilia |
| CCN(CC)CCCNc1nc(-c2cc(C(=O)N[C@@H](C)c3ccccc3)ccc2C)c2ccc(=O)n(-c3c(F)cccc3F)c2n1 [Example 149, 3-[2-{[3-(diethylamino)propyl]amino}-8-(2,6-difluorophenyl)-7-oxo-7,8-dihydropyrido[2,3-d]pyrimidin-4-yl]-4-methyl-N-[(1S)-1-phenylethyl]benzamide] | inactive |
| CCN(CC)CCCNc1nc(-c2cc(C(=O)Nc3ccc(F)cc3)ccc2C)c2ccc(=O)n(-c3c(F)cccc3F)c2n1 [Example 160, 3-[2-{[3-(diethylamino)propyl]amino}-8-(2,6-difluorophenyl)-7-oxo-7,8-dihydropyrido[2,3-d]pyrimidin-4-yl]-N-(4-fluorophenyl)-4-methylbenzamide] | statistically significant inhibition of neutrophilia |
| CCC(C)NC(=O)c1ccc(C)c(-c2nc(NCCCN(CC)CC)nc3c2ccc(=O)n3-c2c(F)cccc2F)c1 (stereo not drawn) [Example 162, 3-[2-{[3-(diethylamino)propyl]amino}-8-(2,6-difluorophenyl)-7-oxo-7,8-dihydropyrido[2,3-d]pyrimidin-4-yl]-4-methyl-N-(1-methylpropyl)benzamide] | statistically nonsignificant inhibition of neutrophilia |
| CCCNC(=O)c1ccc(C)c(-c2nc(N3CCC(N4CCC(C)CC4)CC3)nc3c2ccc(=O)n3-c2c(F)cccc2F)c1 [Example 166, 3-[8-(2,6-difluorophenyl)-2-(4-methyl-1,4′-bipiperidin-1′-yl)-7-oxo-7,8-dihydropyrido[2,3-d]pyrimidin-4-yl]-4-methyl-N-propylbenzamide] | statistically significant inhibition of neutrophilia |
| CCCCNC(=O)c1ccc(C)c(-c2nc(N3CCC(N4CCC(C)CC4)CC3)nc3c2ccc(=O)n3-c2c(F)cccc2F)c1 [Example 167, N-butyl-3-[8-(2,6-difluorophenyl)-2-(4-methyl-1,4′-bipiperidin-1′-yl)-7-oxo-7,8-dihydropyrido[2,3-d]pyrimidin-4-yl]-4-methylbenzamide] | statistically significant inhibition of neutrophilia |
| Cc1ccc(C(=O)NCC(C)C)cc1-c1nc(N2CCC(N3CCC(C)CC3)CC2)nc2c1ccc(=O)n2-c1c(F)cccc1F [Example 168, 3-[8-(2,6-difluorophenyl)-2-(4-methyl-1,4′-bipiperidin-1′-yl)-7-oxo-7,8-dihydropyrido[2,3-d]pyrimidin-4-yl]-4-methyl-N-(2-methylpropyl)benzamide] | inactive |
